According to patent US10758585B2, “Beautyberry total glycosides extract and preparation method and use thereof” (Suzhou Neupharma Co., Ltd., priority 2012, dated 2020):

Test system: SH-SY5Y nerve cells
Experiment: Protective effect against MPP+ induced SH-SY5Y nerve cell injury (MTT cell viability)
Assay type: cell-based
Details: 500 μM MPP+; for protective effect against MPP+ induced SH-SY5Y nerve cell injury: 24 h pre-protection + 24 h co-incubation, MTT, overall statement
Description: SH-SY5Y nerve cells were purchased from ATTC (American Type Culture Collection, Rockville, Md., U.S.A). The cells was cultured with RPMI1640 medium (a product of Hyclone Company) containing 10% fetal bovine serum, 2 mM/L glutamine, as well as 1% penicillium and streptomycin doubleantibiotics, in the incubator at 37° C. and 5% CO2.
The extract tested was the beautyberry total glycosides extract prepared in Example 5 which contained 37.75 wt % verbascoside and 28.01 wt % Arenarioside. The beautyberry total glycosides extract prepared in Example 5, and stock solutions of verbascoside and Arenarioside prepared in 2.1 above were dissolved and formulated respectively with phosphate buffer (PBS) and the resulted solutions were diluted to test concentrations with RPMI 1640 culture medium. MPP+ solution was prepared by dissolving MPP+ to 1 mM with PBS. The test concentration of MPP+ was 500 μM diluted with the culture medium. MTT was formulated with PBS, at a concentration of 0.5 mg/ml, and was filtered to remove bacteria using a 0.22 μm filter membrane prior to use.
SH-SY5Y nerve cells at a logarithmic growth phase were collected and counted with a cell counter. 200 μl of cell suspension with 4×10^4/ml was added into each well of the 96-well plate (converted to 8×10^3/200 μl of the culture medium) and was subjected to adherent culture in the incubator at 37° C. and 5% CO2 for 24 hours. The experiment included 11 groups: (1) a blank control group, wherein RPMI 1640 culture medium was used, and incubation at 5% CO2 and 37° C. was performed for 24 h; (2) a model group, wherein RPMI 1640 culture medium containing 500 μM MPP+ was used, and incubation at 5% CO2 and 37° C. was performed for 24 h; (3) a high dose group (16 μg/mL), a medium dose group (1.6 μg/mL), and a low dose group (0.16 μg/mL) (equivalent to 10 μM, 1 μM, and 0.1 μM verbascoside, respectively) of tests of the extract of Example 5 in the present invention; (4) a high dose group (10 μM), amedium dose group (1 μM), and a low dose group (0.1 μM) of theverbascoside monomer prepared above; and (5) a high dose group (10 μM), a medium dose group (1 μM), and a low dose group (0.1 μM) of the Arenarioside monomer prepared above; wherein, in each experimental dosage groups of (3), (4), and (5), mother liquid of the drug to be tested was firstly diluted to a set dosage concentration with the RPMI 1640 culture medium, then added at 100 μL into the cells, which were pre-protected at 5% CO2 and 37° C. for 24 h, then supernatant was carefully pipetted and discarded, then, mother liquid of the drug to be tested was diluted to a set dosage concentration with the RPMI 1640 culture medium containing 500 μM MPP+ that was formulated beforehand, then added at 100 μL into the cells, which were proceeded to incubation at 5% CO2 and 37° C. for 24 h. Supernatant was carefully pipetted and discarded, placed upside-down on an absorbent paper and patted dry. After the blank group and themodel group were incubated for 24 h, operations were performed using the same method. 5 parallel wells were provided for each group of the samples. MTT at a concentration of 0.5 mg/ml was added into each well of each group above, and incubated at 5% CO2 and 37° C. for 4 h. Supernatant was carefully pipetted and discarded, placed upside-down on an absorbent paper and patted dry. 200 μL of dimethyl sulfoxide (DMSO) was added into each well, and shaken for 300 s. The absorbance value of each well was determined at OD 570 nm, and cell viability was calculated according to the following formula: […]

Row | Structure (SMILES) | cell viability compared with the model group (0.1 μM monomer) | cell viability compared with the model group (1 μM monomer) | protective effect against MPP+ induced SH-SY5Y nerve cell injury
1 | CC1O[C@@H](O[C@@H]2C(O)[C@H](OCCc3ccc(O)c(O)c3)OC(CO[C@@H]3OC[C@@H](O)[C@@H](O)C3O)[C@@H]2OC(=O)/C=C/c2ccc(O)c(O)c2)C(O)[C@@H](O)[C@H]1O (stereo partly drawn) [Arenarioside] | significant higher cell viability as compared with the model group (p<0.01) | significant higher cell viability as compared with the model group (p<0.01) | has a protective effect
2 | C[C@@H]1O[C@@H](O[C@@H]2[C@@H](O)[C@H](OCCc3ccc(O)c(O)c3)O[C@H](CO)[C@H]2OC(=O)/C=C/c2ccc(O)c(O)c2)[C@H](O)[C@H](O)[C@H]1O [verbascoside] | significant difference compared to the model group (p<0.01) | significant difference compared to the model group (p<0.01) | has a protective effect
